Data: patent US11149047B2, “Aryl imidazoles for treatment of cancer” (Aptose Biosciences Inc., priority 2017, dated 2021)
Where two headings read alike, the source gives them in different places.

How the values were obtained:
MV4-11 = assay: Cytotoxicity study (MTS); assay type: cell-based; conditions: Homo sapiens
Procedure: EOL-1, GRANTA-519, Jeko-1, Jurkat, Molm-13, NOMO-1, SKM-1, and SU-DHL-6 were obtained from Leibniz-Institut DSMZ. HL-60, KG-1, Mino, MV4-11, Raji, and THP-1 were obtained from ATCC. HEL92.1.7 were obtained from the European Collection of Authenticated Cell Cultures and Ramos cells were a gift from Dr. M. Andreeff (MD Anderson Cancer Center, Houston, Tex.). All cells were cultured in complete media as per the manufacturer's instructions. Early passage cells were collected and frozen within 1 month of receipt from the manufacturer. All experiments were performed on early passage cells within 6 weeks of thawing. MycoScope Mycoplasma Detection Kit (Genlantis catalog #MY01050) was used to screen for potential contamination every 6 months. Peripheral blood mononuclear cells (PBMC) were isolated from fresh healthy donor blood using Ficoll-Paque PLUS (GE Healthcare, catalog #17-1440-02). For synthesis of COMPOUND I free base, 10-phenanthroline-5,6-dione (1.2 equivalents), acetic acid (22 volumes), 2-methyl-5-fluoroindole-3-carboxaldehyde (1.0 equivalents), and ammonium acetate (15 equivalents) were reacted under medium agitation while heated at 95±5° C. for 3 to 7 hours. The reaction was cooled to between 20° C. and 25° C., filtered, rinsed with acetic acid and ethanol, and dried with N2 purge, followed by a wash with 2:1 ethanol:water at 65° C. for 4 hours, cooling to 20° C. to 25° C., filtration, rinsing with 2:1 ethanol:water and EtOAc, and then dried with N2 purge. The purity by HPLC was 99.5%, and the structural identity was confirmed by FT-IR, ^1HNMR, ^13C NMR, and LC/MS. For Fe(COMPOUND I)3 synthesis, five molar equivalents of ferrous ion FeSO4 in water was added to COMPOUND I dissolved in ethanol. The deep red precipitate produced, Fe(COMPOUND I)3, was collected and dissolved in DMSO and characterized by HPLC and mass spectrometry as >95% pure. CX-5461 (7) was purchased from MedChem Express (catalog #HY-13323).
[…] Cell viability was measured using CellTiter 96 AQueous one solution (MTS) cell proliferation assay (Promega, catalog #G3581), and IC50 values were calculated using GraphPad Prism 7 software.

[1] = Stability / complex formation in culture medium and on storage; assay type: physicochemical; conditions: COMPOUND I incubated with complete tissue culture medium
Procedure: Five molar equivalents of ferrous ion as FeSO4 in a concentrated water stock was added to COMPOUND I in ethanol which produced a deep red precipitate that was subsequently dissolved in DMSO and characterized by HPLC and mass spectrometry. Fe(COMPOUND I)3 was >95% pure and stable in the complete RPMI-1640 media for at least 5 days.

[2] = tested on: PEO4 and PEO1 ovarian cancer cell lines; assay: Sensitivity of BRCA2-proficient and -deficient cells; assay type: cell-based; conditions: FIG. 3D
Procedure: (§1) Cells were plated and treated with the indicated drugs in 96-well plates for 5 days. Cell viability was measured using CellTiter 96 AQueous one solution (MTS) cell proliferation assay purchased from Promega, and IC50 values were calculated using GraphPad Prism 6 Software.
(§2) The finding that COMPOUND I produced DNA damage led to the investigation of whether cells deficient in homologous recombination were hypersensitive to this drug. The hypothesis that there would be synthetic lethality between COMPOUND I and BRCA1 deficiency using isogenic pairs of BRCA1-proficient and -deficient human cell lines was tested. […] The conclusion that BRCA1-deficient cells are hypersensitive to COMPOUND I was further supported by the results obtained in MCF7 E7 cells in which BRCA1 expression is stably knocked down by the expression of an shRNAi. […] Whether BRCA2-deficient cells are more sensitive to COMPOUND I was tested using the BRCA2-proficient and BRCA2-deficient ovarian cancer cell lines, PEO4 and PEO1, respectively. PEO1 is BRCA2-deficient and sensitive to cisplatin and a poly(ADP-ribose) polymerase inhibitor AG14361. PEO4 was derived from ascites at the time of relapse with cisplatin resistance and contains a secondary mutation that restores BRCA2 function. […] Thus, loss of either BRCA1 or BRCA2 function renders malignant cells hypersensitive to COMPOUND I.

[3] = tested on: AML cell lines and various forms of lymphoma cell lines; assay: Cytotoxicity study (MTS), cell line panel; assay type: cell-based; conditions: inhibition of proliferation; read-out: IC50 values, range over cell lines
Procedure: Cells were plated and treated with vehicle DMSO or COMPOUND I (10 concentrations) in 96-well plates for 5 days at 37° C. and 5% CO2. Cell viability was measured using CellTiter 96 AQueous one solution (MTS) cell proliferation assay (Promega, catalog #G3581), and IC50 values were calculated using GraphPad Prism 7 software.
Previous studies reported upregulation of KLF4 and CDKN1A expression as a potential mechanism of APT0-COMPOUND I activity in tumors. […] The upregulation of CDKN1A mRNA increased with duration of exposure in all AML cell lines tested (FIGS. 15D and 15E). At later time points, CDKN1A expression began to decrease, likely due to increasing cell death. Induction of CDKN1A expression is typically associated with a subsequent G0-G1, cell-cycle arrest, which was observed following COMPOUND I treatment of solid tumor lines.

[4] = tested on: MCF10A BRCA1-het #1 and #2 clones vs control; assay: Sensitivity of BRCA1-proficient and -deficient isogenic clones; assay type: cell-based, human; conditions: FIG. 3A
Procedure: as §1, §2

[5] = tested on: hTERT-IMEC BRCA1 knock-in clone; assay: as above; assay type: cell-based, human; conditions: FIG. 3B
Procedure: as §1, §2

`Cc1[nH]c2ccc(F)cc2c1-c1nc2c3cccnc3c3ncccc3c2[nH]1` [COMPOUND I, 2-(5-fluoro-2-methyl-1H-indol-3-yl)-1H-imidazo[4,5-f][1,10]phenanthroline] gave an IC50 (MV4-11; MV4-11, 120 h, AML, 5 days, read-out: IC50 (μM) Mean) of 0.24 µM, an IC50 (MV4-11; MV4-11, exposure 48 hours, read-out: IC50) of 0.47 µM and an IC50 (MV4-11; MV4-11, exposure 72 hours, read-out: IC50) of 0.4 µM. For the same compound, the IC50 (MV4-11; MV4-11, exposure 120 hours, read-out: IC50) was 0.24 µM, the “extracellular Fe(COMPOUND I)3 formation” value [1] was “no extracellular Fe(COMPOUND I)3 was detected” and the “effect of restoration of BRCA2 function (PEO4 vs PEO1)” value [2] was “increased resistance”. The IC50 [3] was 57 to 1750 nM, the “sensitivity of BRCA1-het knockin clones vs control” value [4] was “even more hypersensitive” and the “sensitivity of BRCA1 2-bp knock-in clone” value [5] was “hypersensitive to both olaparib and COMPOUND I”.
